# According to patent US20230035723A1, “Treatment of Pancreatic Cancer” (SynCore Biotechnology Co., Ltd., priority 2017, published 2023):
# Where a name gives a salt, the structure may show the parent alone. Read-outs that look alike come from different tables or passages of the source.
# Key:
# PAXF PANC-1 = assay: Cell lines exhibiting drug resistance (IC50); type: cell-based
# PAXF 546 = assay: Cell lines exhibiting drug resistance (IC50); type: cell-based
# PAXF 1986 = assay: Cell lines exhibiting drug resistance (IC50); type: cell-based
# PAXF 1998 = assay: Cell lines exhibiting drug resistance (IC50); type: cell-based
# PAXF 2005 = assay: Cell lines exhibiting drug resistance (IC50); type: cell-based
# PAXF 2035 = assay: Cell lines exhibiting drug resistance (IC50); type: cell-based
# pancreatic cancer [1] = conditions: pancreatic cancer patients; P=0.002; cited from earlier work
# PAXF CAPAN-2 = assay: Cell lines exhibiting drug resistance (IC50); type: cell-based
# PAXF HPAC = assay: Cell lines exhibiting drug resistance (IC50); type: cell-based
# PAXF 2059 = assay: Cell lines exhibiting drug resistance (IC50); type: cell-based
# pancreatic cancer [2] = conditions: phase III study, pancreatic cancer patients; cited from earlier work
# [3] = test system: unresectable pancreatic cancer; conditions: phase III study; cited from earlier work
# [4] = test system: metastatic pancreatic cancer; conditions: first-line therapy of metastatic pancreatic cancer; cited from earlier work
# [5] = test system: metastatic pancreatic cancer; conditions: first-line therapy; cited from earlier work
Compound,IC50 (PAXF PANC-1; Homo sapiens) [nM],"IC50 (PAXF 546; Homo sapiens, PAXF546) [nM]",IC50 (PAXF 1986) [nM],IC50 (PAXF 1998) [nM],IC50 (PAXF 2035) [nM],IC50 (PAXF PANC-1) [nM],IC50 (PAXF 546) [nM],further results
O=c1[nH]cc(F)c(=O)[nH]1 [5-Fluorouracil],3230,1250,2250,7480,105000,–,–,IC50 (PAXF 2005): 10300 nM; median overall survival (pancreatic cancer [1]): 4.4 months
CC(C)C[C@H](NC(=O)[C@H](Cc1ccccc1)NC(=O)c1cnccn1)B(O)O [Bortezomib],18,5,–,–,–,–,–,–
N.N.O=C([O-])C1(C(=O)[O-])CCC1.[Pt+2] [Carboplatin],–,–,–,–,–,15600,17100,–
N.N.[Cl][Pt][Cl] [Cisplatin],–,–,4830,75700,46000,7440,11500,IC50 (PAXF CAPAN-2): 62100 nM; IC50 (PAXF HPAC): 31700 nM; IC50 (PAXF 2005; PAXF 2005): 10800 nM; IC50 (PAXF 2059): 41000 nM
Nc1ccn([C@@H]2O[C@H](CO)[C@@H](O)[C@@H]2O)c(=O)n1 [Cytarabine],158,4640,–,–,–,–,–,–
CC(=O)O[C@@]12CO[C@@H]1C[C@H](O)[C@@]1(C)C(=O)[C@H](O)C3=C(C)[C@@H](OC(=O)[C@H](O)[C@@H](NC(=O)OC(C)(C)C)c4ccccc4)C[C@@](O)([C@@H](OC(=O)c4ccccc4)[C@H]21)C3(C)C [Docetaxel],–,104,6,15,4,–,–,IC50 (PAXF 2005): 100 nM; IC50 (PAXF 2059): 100 nM
O=NN(CCCl)C(=O)NCCO [Elmustin],–,–,–,–,–,375000,722000,–
O=NN(CCCl)C(=O)NC1CCCCC1 [Lomustine],43600,142000,–,–,–,–,–,–
CN(Cc1cnc2nc(N)nc(N)c2n1)c1ccc(C(=O)N[C@@H](CCC(=O)O)C(=O)O)cc1 [Methotrexate Hydrat],–,–,–,160,–,38,129,IC50 (PAXF 2005; PAXF 2005): 10000 nM; IC50 (PAXF 2059): 31 nM
CN(Cc1cnc2nc(N)nc(N)c2n1)c1ccc(C(=O)N[C@@H](CCC(=O)O)C(=O)O)cc1 [Methotrexate],10000,66,–,–,–,–,–,–
CO[C@@]12[C@H](COC(N)=O)C3=C(C(=O)C(C)=C(N)C3=O)N1C[C@@H]1N[C@@H]12 [Mitomycin C],–,–,188,987,678,1120,465,IC50 (PAXF 2005; PAXF 2005): 276 nM
O=C1c2c(O)ccc(O)c2C(=O)c2c(NCCNCCO)ccc(NCCNCCO)c21 [Mitoxantron 2HCl],–,–,35,240,67,10,187,IC50 (PAXF 2005; PAXF 2005): 16 nM; IC50 (PAXF 2059): 35 nM
O=C1[O][Pt]2([NH][C@@H]3CCCC[C@H]3[NH]2)[O]C1=O [Oxaliplatin],–,–,1610,34600,99200,994,1240,IC50 (PAXF 2005; PAXF 2005): 12500 nM
"Nc1nc2[nH]cc(CCc3ccc(C(=O)N[C@@H](CCC(=O)O)C(=O)O)cc3)c2c(=O)[nH]1 [Pemetrexed, dinatrium]",–,–,–,–,–,13000,114,–
CC[C@]1(O)C[C@@H]2CN(CCc3c([nH]c4ccccc34)[C@@](C(=O)OC)(c3cc4c(cc3OC)N(C)[C@H]3[C@@](O)(C(N)=O)[C@H](O)[C@]5(CC)C=CCN6CC[C@]43[C@@H]65)C2)C1 [Vindesin sulfate],–,–,–,–,–,5,109,–
Nc1ccn([C@@H]2O[C@H](CO)[C@@H](O)C2(F)F)c(=O)n1 [gemcitabine],–,–,–,–,–,–,–,median overall survival (pancreatic cancer [1]): 5.6 months; one-year survival (pancreatic cancer [2]): 17%; median overall survival [3]: 8.8 months; median overall survival [4]: 6.8 months; median overall survival [5]: 6.7 months
Bleomycin sulfate,–,–,–,–,–,149,10700,–
FOLFIRINOX,–,–,–,–,–,–,–,median overall survival [4]: 11.1 months
Vinorelbine bistartrate,–,–,–,–,–,2,72,–

# More lines, main results first:
IC50 (PAXF PANC-1; Homo sapiens) [nM],"IC50 (PAXF 546; Homo sapiens, PAXF546) [nM]",IC50 (PAXF 1986) [nM],IC50 (PAXF 1998) [nM],IC50 (PAXF 2035) [nM],Compound,IC50 (PAXF PANC-1) [nM],IC50 (PAXF 546) [nM],further results
49,134,59,1230,795,COc1cccc2c1C(=O)c1c(O)c3c(c(O)c1C2=O)C[C@@](O)(C(=O)CO)C[C@@H]3O[C@H]1C[C@H](N)[C@H](O)[C@H](C)O1 [Doxorubicin HCl],–,–,IC50 (PAXF 2005): 251 nM; IC50 (PAXF 2059): 131 nM
113000,46100,100000,99100,83600,C#Cc1cccc(Nc2ncnc3cc(OCCOC)c(OCCOC)cc23)c1 [Erlotinib HCl],–,–,IC50 (PAXF 2005): 52700 nM
1500,7400,–,–,–,COc1cc([C@@H]2c3cc4c(cc3[C@@H](O[C@@H]3O[C@@H]5CO[C@@H](C)O[C@H]5[C@H](O)[C@H]3O)[C@H]3COC(=O)[C@H]23)OCO4)cc(OC)c1O [Etoposide],–,–,–
5220,97,8,158,1490,Nc1ccn([C@@H]2O[C@H](CO)[C@@H](O)C2(F)F)c(=O)n1 [Gemcitabine HCl],–,–,IC50 (PAXF CAPAN-2; Homo sapiens): 3670 nM; IC50 (PAXF HPAC; Homo sapiens): 421 nM; IC50 (PAXF 2005): 390 nM; IC50 (PAXF 2059): 15 nM
12,131,–,–,–,CC(=O)[C@]1(O)Cc2c(O)c3c(c(O)c2[C@@H](O[C@H]2C[C@H](N)[C@H](O)[C@H](C)O2)C1)C(=O)c1ccccc1C3=O [Idarubicin],–,–,–
46,441,204,117,144,CC(=O)O[C@H]1C(=O)[C@@]2(C)[C@H]([C@H](OC(=O)c3ccccc3)[C@]3(O)C[C@H](OC(=O)[C@H](O)[C@@H](NC(=O)c4ccccc4)c4ccccc4)C(C)=C1C3(C)C)[C@]1(OC(C)=O)CO[C@@H]1C[C@@H]2O [Paclitaxel],–,–,IC50 (PAXF CAPAN-2; Homo sapiens): 444 nM; IC50 (PAXF HPAC; Homo sapiens): 383 nM; IC50 (PAXF 2005): 312 nM; IC50 (PAXF 2059): 261 nM
8550,7380,4240,13200,2400,CCN(CC)CCNC(=O)c1c(C)[nH]c(/C=C2\C(=O)Nc3ccc(F)cc32)c1C [Sunitinib malate],–,–,IC50 (PAXF 2005): 7090 nM; IC50 (PAXF 2059): 16500 nM
42,80,–,–,–,CC[C@@]1(O)C(=O)OCc2c1cc1n(c2=O)Cc2cc3c(CN(C)C)c(O)ccc3nc2-1 [Topotecan HCl],–,–,–
2020,48100,–,–,–,CS(=O)(=O)OC[C@H](O)[C@@H](O)COS(C)(=O)=O [Treosulfan],–,–,–
16100,5330,9340,10800,11400,CCCS(=O)(=O)Nc1ccc(F)c(C(=O)c2c[nH]c3ncc(-c4ccc(Cl)cc4)cc23)c1F [Vemurafenib],–,–,IC50 (PAXF 2005): 6750 nM; IC50 (PAXF 2059): 11400 nM
1,71,–,–,–,CC[C@]1(O)C[C@@H]2CN(CCc3c([nH]c4ccccc34)[C@@](C(=O)OC)(c3cc4c(cc3OC)N(C)[C@H]3[C@@](O)(C(=O)OC)[C@H](OC(C)=O)[C@]5(CC)C=CCN6CC[C@]43[C@@H]65)C2)C1 [Vinblastine sulfate],–,–,–
3,247,300,8,462,CC[C@]1(O)C[C@H]2CN(CCc3c([nH]c4ccccc34)[C@@](C(=O)OC)(c3cc4c(cc3OC)N(C=O)[C@H]3[C@@](O)(C(=O)OC)[C@H](OC(C)=O)[C@]5(CC)C=CCN6CC[C@]43[C@@H]65)C2)C1 [Vincristine sulfate],–,–,IC50 (PAXF 2005): 45 nM
